Assay results published in patent publication US20040102362A1, “Protocol for paracentesis” (priority 2000, published 2004).
Positions of bridges follow the written chain, without caps; N, C: chain ends. Residues, ends and D or L forms follow the SMILES beside them.

System: cirrhotic patients with tense ascites
Details: human, in vivo
Description: Patient selection criteria: 24 clinically stable cirrhotic patients with tense ascites in need of therapeutic paracentesis were recruited to the study.
Treatment: Both groups received therapeutic paracentesis according to the usual protocol of the study centre. […] Plasma renin and aldosterone levels were measured as markers of blood volume. Certain other parameters were determined as secondary criteria for successful treatment.

SMILES: NCCCC[C@H](NC(=O)[C@@H]1CCCN1C(=O)[C@@H]1CSSC[C@H](NC(=O)CNC(=O)CNC(=O)CN)C(=O)N[C@@H](Cc2ccc(O)cc2)C(=O)N[C@@H](Cc2ccccc2)C(=O)N[C@@H](CCC(N)=O)C(=O)N[C@@H](CC(N)=O)C(=O)N1)C(=O)NCC(N)=O [Terlipressin] (H-GGGCYFQNCPKG-NH2; disulfide 4-9)
- Creatininaemia: 72 ± 8
- Natraemia: 133 ± 1 mmol/L
